Measured values taken from patent US12590099B2, “Inhibitors of histone deacetylase useful for the treatment or prevention of HIV infection” (Merck Sharp & Dohme LLC, priority 2018, dated 2026).
Like-named read-outs stand apart in the source and are kept apart here.

Assays:
HDAC6 = target: T1, HDAC6 (Homo sapiens, UniProt Q9UBN7); test: Human HDAC enzyme inhibitor Fluor-de-Lys assay, HDAC6; format: biochemical
T1 sequence (Q9UBN7 1-1215): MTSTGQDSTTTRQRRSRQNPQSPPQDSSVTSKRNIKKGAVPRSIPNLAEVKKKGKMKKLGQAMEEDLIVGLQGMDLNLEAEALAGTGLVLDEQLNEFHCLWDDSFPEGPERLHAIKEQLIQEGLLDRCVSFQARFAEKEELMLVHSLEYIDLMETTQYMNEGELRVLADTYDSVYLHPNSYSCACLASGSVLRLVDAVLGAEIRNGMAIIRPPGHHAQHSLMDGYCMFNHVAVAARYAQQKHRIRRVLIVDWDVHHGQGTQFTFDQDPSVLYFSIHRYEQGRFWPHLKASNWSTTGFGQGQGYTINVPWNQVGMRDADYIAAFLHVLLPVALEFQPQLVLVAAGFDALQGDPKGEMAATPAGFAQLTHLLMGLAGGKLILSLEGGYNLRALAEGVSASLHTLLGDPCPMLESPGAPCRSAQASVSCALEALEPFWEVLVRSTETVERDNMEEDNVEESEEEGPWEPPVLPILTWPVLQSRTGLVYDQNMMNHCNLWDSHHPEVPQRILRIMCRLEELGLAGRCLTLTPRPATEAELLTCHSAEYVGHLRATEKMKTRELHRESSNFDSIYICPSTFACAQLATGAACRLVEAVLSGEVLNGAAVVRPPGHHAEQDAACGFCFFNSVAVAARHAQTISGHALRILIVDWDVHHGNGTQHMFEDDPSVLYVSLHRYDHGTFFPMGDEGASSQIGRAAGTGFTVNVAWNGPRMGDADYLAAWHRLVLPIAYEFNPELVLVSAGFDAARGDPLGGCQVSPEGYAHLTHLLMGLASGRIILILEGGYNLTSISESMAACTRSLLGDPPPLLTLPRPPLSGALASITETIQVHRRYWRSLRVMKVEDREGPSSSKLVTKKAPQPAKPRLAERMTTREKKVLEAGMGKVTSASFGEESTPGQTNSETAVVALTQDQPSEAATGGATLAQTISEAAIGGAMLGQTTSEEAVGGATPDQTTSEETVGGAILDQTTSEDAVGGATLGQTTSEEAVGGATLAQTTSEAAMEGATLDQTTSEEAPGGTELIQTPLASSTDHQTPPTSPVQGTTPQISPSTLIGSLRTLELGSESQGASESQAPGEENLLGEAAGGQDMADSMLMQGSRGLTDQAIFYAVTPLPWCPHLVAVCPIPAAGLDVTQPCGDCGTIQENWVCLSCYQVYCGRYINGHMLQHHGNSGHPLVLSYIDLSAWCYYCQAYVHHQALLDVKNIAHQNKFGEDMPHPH

Recombinant human HDAC2 = target: T2, Recombinant human HDAC2 (Homo sapiens, UniProt Q92769); test: Human HDAC enzyme inhibitor Fluor-de-Lys assay, HDAC2; format: biochemical
T2 construct: Full length human HDAC2-FLAG was expressed in baculovirus infected Sf9 cells; FLAG (C); made in house; host or cells: Sf9 (baculovirus)
T2 sequence (Q92769 whole entry): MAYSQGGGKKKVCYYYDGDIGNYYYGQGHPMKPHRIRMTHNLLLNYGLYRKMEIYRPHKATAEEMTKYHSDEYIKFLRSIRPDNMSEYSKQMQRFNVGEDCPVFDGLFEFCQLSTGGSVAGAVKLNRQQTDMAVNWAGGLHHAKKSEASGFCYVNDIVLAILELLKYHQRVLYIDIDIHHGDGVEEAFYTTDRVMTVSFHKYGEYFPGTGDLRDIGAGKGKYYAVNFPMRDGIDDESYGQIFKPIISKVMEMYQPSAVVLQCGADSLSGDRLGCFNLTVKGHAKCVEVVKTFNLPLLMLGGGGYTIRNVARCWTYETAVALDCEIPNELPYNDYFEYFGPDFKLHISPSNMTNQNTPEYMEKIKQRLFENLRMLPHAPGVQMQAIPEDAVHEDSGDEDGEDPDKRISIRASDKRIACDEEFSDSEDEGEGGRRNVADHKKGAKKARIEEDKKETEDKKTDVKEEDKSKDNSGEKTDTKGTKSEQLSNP
Outline: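 Fluor-de-Lys format at room temperature (23° C.): compounds titrated 10-point, 1:3, preincubated with HDAC before substrate addition. Developer with excess HDAC inhibitor ends the reaction, and trypsin-liberated AMC fluorescence is the read-out.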

[1] = recombinant human HDAC2, Fluor-de-Lys assay

CCC(=O)CCCCC[C@H](NC(=O)[C@H]1CC12CCN(CC)CC2)c1ncc(-c2ccc(-c3nccs3)cc2)o1 [Compound 93]
IC50 (HDAC6): 955 nM
IC50 (Recombinant human HDAC2): 25.6 nM

CCC(=O)CCCCC[C@H](NC(=O)[C@H]1CC12CCN(C)CC2)c1ncc(-c2ccc3ccc(C)nc3c2F)[nH]1 [Compound 354]
IC50 (HDAC6; HDAC6, Fluor-de-Lys assay): 354 nM
IC50 (Recombinant human HDAC2; [1]): 11.3 nM

CCCn1cc(-c2[nH]c(-c3ccc(F)cc3)nc2C(CCCCCC(=O)CC)NC(=O)C2CC23CCN(CC)CC3)cn1 (stereo not drawn) [Compound 254]
IC50 (HDAC6; HDAC6, Fluor-de-Lys assay): > 45000 nM
IC50 (Recombinant human HDAC2; [1]): 131 nM

CCC(=O)CCCCC[C@H](NC(=O)C1CC12CCN(CC)CC2)c1nc(-c2ccc(F)cc2)[nH]c1-c1cccs1 (stereo partly drawn) [Compound 252]
IC50 (HDAC6; HDAC6, Fluor-de-Lys assay): 33900 nM
IC50 (Recombinant human HDAC2; [1]): 185 nM

CCC(=O)CCCCC[C@H](NC(=O)C1CC12CCN(CC)CC2)c1nc(-c2ccc(F)cc2)[nH]c1-c1ccn(C)c1 (stereo partly drawn) [Compound 251]
IC50 (HDAC6; HDAC6, Fluor-de-Lys assay): 41700 nM
IC50 (Recombinant human HDAC2; [1]): 12.6 nM

CCC(=O)CCCCC[C@H](NC(=O)[C@H]1CC12CCN(C)CC2)c1ncc(-c2cnc(OC)nc2)[nH]1 [Compound 255]
IC50 (HDAC6; HDAC6, Fluor-de-Lys assay): 12100 nM
IC50 (Recombinant human HDAC2; [1]): 491 nM

CCC(=O)CCCCC[C@H](NC(=O)C1CC12CCN(CC)CC2)c1nc(-c2ccc(F)cc2)[nH]c1-c1ccsc1 (stereo partly drawn) [Compound 250]
IC50 (HDAC6; HDAC6, Fluor-de-Lys assay): 21900 nM
IC50 (Recombinant human HDAC2; [1]): 192 nM

CCC(=O)CCCCC[C@H](NC(=O)C1=NOC2(CCN(CC)CC2)C1)c1ncc(-c2cc3ccc(C)nc3cc2F)o1 [Compound 269]
IC50 (HDAC6; HDAC6, Fluor-de-Lys assay): > 900 nM
IC50 (Recombinant human HDAC2; [1]): 36.7 nM

CCC(=O)CCCCC[C@@H](NC(=O)C1CCC2(CC1)CNC2)c1ncc(-c2ccccc2)[nH]1 [Compound 298]
IC50 (HDAC6; HDAC6, Fluor-de-Lys assay): 5070 nM
IC50 (Recombinant human HDAC2; [1]): 144 nM

CCC(=O)CCCCCC(NC(=O)C1CCC2(CC1)OC(=O)c1cnccc12)c1nnc(-c2cc3ccccc3nc2OC)o1 (stereo not drawn) [Compound 364]
IC50 (HDAC6; HDAC6, Fluor-de-Lys assay): 1990 nM
IC50 (Recombinant human HDAC2; [1]): 248 nM

CCC(=O)CCCCC[C@H](NC(=O)[C@H]1CC12CCN(C)CC2)c1[nH]c(-c2ccc(F)cc2)nc1Cl [Compound 240]
IC50 (HDAC6; HDAC6, Fluor-de-Lys assay): 38400 nM
IC50 (Recombinant human HDAC2; [1]): 38.1 nM

CCC(=O)CCCCC[C@H](NC(=O)[C@H]1CC12CCN(C)CC2)c1ncc(-c2ccccc2F)[nH]1 [Compound 290]
IC50 (HDAC6; HDAC6, Fluor-de-Lys assay): 5990 nM
IC50 (Recombinant human HDAC2; [1]): 73.5 nM

CCCC(=O)CCCCC[C@H](NC(=O)[C@H]1CC12CCN(C)CC2)c1ncc(-c2ccc(F)cc2)[nH]1 [Compound 239]
IC50 (HDAC6; HDAC6, Fluor-de-Lys assay): > 45000 nM
IC50 (Recombinant human HDAC2; [1]): 77.4 nM

CCC(=O)CCCCC[C@H](NC(=O)CC1CC2(CNC2)C1)c1nnc(-c2cc3ccccc3nc2OC)o1 [Compound 301]
IC50 (HDAC6; HDAC6, Fluor-de-Lys assay): 3480 nM
IC50 (Recombinant human HDAC2; [1]): 77.6 nM

CCC(=O)CCCCC[C@H](NC(=O)[C@H]1CC12CCN(CC)CC2)c1ncc(-c2ccc(-n3cccn3)cc2)o1 [Compound 95]
IC50 (HDAC6): 1250 nM
IC50 (Recombinant human HDAC2): 31.5 nM

CCC(=O)CCCCC[C@H](NC(=O)[C@H]1CC12CCN(C)CC2)c1ncc(-c2ccc3nc(C)ccc3c2)o1 [Compound 80]
IC50 (HDAC6): 1680 nM
IC50 (Recombinant human HDAC2): 14.8 nM

CCC(=O)CCCCC[C@H](NC(=O)C1NC(=O)CC12CN(C)C2)c1ncc(-c2cc3ccccc3nc2OC)[nH]1 (stereo partly drawn) [Compound 317]
IC50 (HDAC6; HDAC6, Fluor-de-Lys assay): 186 nM
IC50 (Recombinant human HDAC2; [1]): 5 nM

CCC(=O)CCCCC[C@H](NC(=O)CC1CC2(C1)CN(C)C2)c1ncc(-c2cc3ccccc3nc2O)[nH]1 [Compound 326]
IC50 (HDAC6; HDAC6, Fluor-de-Lys assay): > 1500 nM
IC50 (Recombinant human HDAC2; [1]): 9 nM

CCC(=O)CCCCC[C@H](NC(=O)[C@H]1CC12CCN(CC1CC1)CC2)c1ncc(-c2cc3ccc(C)nc3cc2F)[nH]1 [Compound 228]
IC50 (HDAC6; HDAC6, Fluor-de-Lys assay): > 900 nM
IC50 (Recombinant human HDAC2; [1]): 0.6 nM

CCC(=O)CCCCC[C@H](NC(=O)[C@H]1CC12CCN(C)CC2)c1ncc(-c2ccc3ncoc3c2)[nH]1 [Compound 89]
IC50 (HDAC6): 7590 nM
